Experimental data taken from patent US8952024B2, “Herbicidal pyrimidone derivatives” (E I du Pont de Nemours and Company, priority 2009, dated 2015).

Columns and labels:
Type in all cases: in vivo
[1] = system: barnyardgrass (Echinochloa crus-galli); test: Test A pre-/postemergence plant response; settings: for Barnyardgrass plant response rating: visual injury, 0 to 100 scale (0 no effect, 100 complete control), approx. ten days
Method in brief: (§1)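 Visual injury rating on a 0–100 scale (0 = no effect, 100 = complete control) was made versus untreated controls after about ten days in the greenhouse. Compounds, formulated in a non-phytotoxic solvent mix containing surfactant, were sprayed preemergence onto loam/sand soil and postemergence onto one- to two-leaf plants.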

corn (Zea mays) = test: Test A pre-/postemergence plant response; settings: for Corn plant response rating: visual injury, 0 to 100 scale (0 no effect, 100 complete control), approx. ten days
Method in brief: as §1

[2] = system: giant foxtail (Setaria faberii); test: Test A pre-/postemergence plant response; settings: for Foxtail, Giant plant response rating: visual injury, 0 to 100 scale (0 no effect, 100 complete control), approx. ten days
Method in brief: as §1

[3] = system: large crabgrass (Digitaria sanguinalis); test: Test A pre-/postemergence plant response; settings: for Crabgrass, Large plant response rating: visual injury, 0 to 100 scale (0 no effect, 100 complete control), approx. ten days
Method in brief: as §1

[4] = system: morningglory (Ipomoea spp.); test: Test A pre-/postemergence plant response; settings: for Morningglory plant response rating: visual injury, 0 to 100 scale (0 no effect, 100 complete control), approx. ten days
Method in brief: as §1

[5] = system: pigweed (Amaranthus retroflexus); test: Test A pre-/postemergence plant response; settings: for Pigweed plant response rating: visual injury, 0 to 100 scale (0 no effect, 100 complete control), approx. ten days
Method in brief: as §1

[6] = system: velvetleaf (Abutilon theophrasti); test: Test A pre-/postemergence plant response; settings: for Velvetleaf plant response rating: visual injury, 0 to 100 scale (0 no effect, 100 complete control), approx. ten days
Method in brief: as §1

[7] = system: wheat (Triticum aestivum); test: Test A pre-/postemergence plant response; settings: for Wheat plant response rating: visual injury, 0 to 100 scale (0 no effect, 100 complete control), approx. ten days
Method in brief: as §1

[8] = system: barnyardgrass (Echinochloa crus-galli); test: Test B flooded paddy test; settings: for Plant response rating, Barnyardgrass: Flood (flooded paddy test), 13 to 15 days; for Barnyardgrass plant response rating: Flood, 31 g ai/ha, scale 0 to 100 (0 no effect, 100 complete control)
Method in brief: (§2)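 Visual scores run from 0 (no effect) to 100 (complete control), assigned by comparison with controls 13 to 15 days after treatment. Test compounds went straight into water standing 3 cm above the soil, around plants at the 2-leaf stage kept in a greenhouse.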

[9] = system: ducksalad (Heteranthera limosa); test: Test B flooded paddy test; settings: for Plant response rating, Ducksalad: Flood (flooded paddy test), 13 to 15 days; for Ducksalad plant response rating: Flood, 31 g ai/ha, scale 0 to 100 (0 no effect, 100 complete control)
Method in brief: as §2

rice (Oryza sativa) = test: Test B flooded paddy test; settings: for Plant response rating, Rice: Flood (flooded paddy test), 13 to 15 days; for Rice plant response rating: Flood, 31 g ai/ha, scale 0 to 100 (0 no effect, 100 complete control)
Method in brief: as §2

[10] = system: umbrella sedge (Cyperus difformis); test: Test B flooded paddy test; settings: for Plant response rating, Sedge, Umbrella: Flood (flooded paddy test), 13 to 15 days; for Sedge, Umbrella plant response rating: Flood, 31 g ai/ha, scale 0 to 100 (0 no effect, 100 complete control)
Method in brief: as §2

[11] = Postemergence, 125 g ai/ha, 0 to 100 scale where 0 is no effect and 100 is complete control
[12] = Preemergence, 125 g ai/ha, 0 to 100 scale, 0 = no effect, 100 = complete control
[13] = Preemergence, 500 g ai/ha, 0 to 100 scale, 0 = no effect, 100 = complete control
[14] = 250 g ai/ha, flooded paddy test, visual rating on 0 to 100 scale (0 no effect, 100 complete control) after 13 to 15 days
[15] = 62 g ai/ha, scale of 0 to 100 where 0 is no effect and 100 is complete control
[16] = 125 g ai/ha, scale 0 to 100, 0 is no effect, 100 is complete control

CCc1ccc(-n2c(-c3cccc(F)c3)ncc(C(=O)C3=C(O)CCCC3=O)c2=O)cc1 [Compound 204]
Plant response rating, Barnyardgrass [1, 11]: 100
Barnyardgrass plant response rating ([1]; Postemergence, 500 g ai/ha): 100
Plant response rating, Barnyardgrass [1, 12]: 30
Plant response rating, Barnyardgrass [1, 13]: 80
Plant response rating, Corn (corn (Zea mays); [11]): 0
Corn plant response rating (corn (Zea mays); Postemergence, 500 g ai/ha): 10
Plant response rating, Corn (corn (Zea mays); [12]): 20
Plant response rating, Corn (corn (Zea mays); [13]): 20
Plant response rating, Foxtail, Giant [2, 11]: 30
Foxtail, Giant plant response rating ([2]; Postemergence, 500 g ai/ha): 100
Plant response rating, Foxtail, Giant [2, 12]: 20
Plant response rating, Foxtail, Giant [2, 13]: 90
Plant response rating, Crabgrass, Large [3, 11]: 60
Crabgrass, Large plant response rating ([3]; Postemergence, 500 g ai/ha): 100
Plant response rating, Crabgrass, Large [3, 12]: 40
Plant response rating, Crabgrass, Large [3, 13]: 100
Plant response rating, Morningglory [4, 11]: 30
Morningglory plant response rating ([4]; Postemergence, 500 g ai/ha): 100
Plant response rating, Morningglory [4, 12]: 0
Plant response rating, Morningglory [4, 13]: 80
Plant response rating, Pigweed [5, 11]: 100
Pigweed plant response rating ([5]; Postemergence, 500 g ai/ha): 100
Plant response rating, Pigweed [5, 12]: 100
Plant response rating, Pigweed [5, 13]: 100
Plant response rating, Velvetleaf [6, 11]: 100
Velvetleaf plant response rating ([6]; Postemergence, 500 g ai/ha): 100
Plant response rating, Velvetleaf [6, 12]: 50
Plant response rating, Velvetleaf [6, 13]: 90
Plant response rating, Wheat [7, 11]: 0
Wheat plant response rating ([7]; Postemergence, 500 g ai/ha): 40
Plant response rating, Wheat [7, 12]: 20
Plant response rating, Wheat [7, 13]: 40
Plant response rating, Flood, Barnyardgrass [8, 14]: 60
Plant response rating, Barnyardgrass [8, 15]: 15
Plant response rating, Barnyardgrass [8, 16]: 25
Barnyardgrass plant response rating [8]: 10
Plant response rating, Flood, Ducksalad [9, 14]: 100
Plant response rating, Ducksalad [9, 15]: 70
Plant response rating, Ducksalad [9, 16]: 90
Ducksalad plant response rating [9]: 50
Plant response rating, Flood, Rice (rice (Oryza sativa); [14]): 60
Plant response rating, Rice (rice (Oryza sativa); [15]): 0
Plant response rating, Rice (rice (Oryza sativa); [16]): 0
Rice plant response rating (rice (Oryza sativa)): 0
Plant response rating, Flood, Sedge, Umbrella [10, 14]: 95
Plant response rating, Sedge, Umbrella [10, 15]: 75
Plant response rating, Sedge, Umbrella [10, 16]: 90
Sedge, Umbrella plant response rating [10]: 70

CCCn1c(-c2cccc(C)c2)ncc(C(=O)C2=C(O)CCCC2=O)c1=O [Compound 172]
Plant response rating, Barnyardgrass [1, 11]: 90
Barnyardgrass plant response rating ([1]; Postemergence, 500 g ai/ha): 90
Plant response rating, Barnyardgrass [1, 12]: 10
Plant response rating, Barnyardgrass [1, 13]: 80
Plant response rating, Corn (corn (Zea mays); [11]): 20
Corn plant response rating (corn (Zea mays); Postemergence, 500 g ai/ha): 30
Plant response rating, Corn (corn (Zea mays); [12]): 0
Plant response rating, Corn (corn (Zea mays); [13]): 0
Plant response rating, Foxtail, Giant [2, 11]: 60
Foxtail, Giant plant response rating ([2]; Postemergence, 500 g ai/ha): 90
Plant response rating, Foxtail, Giant [2, 12]: 10
Plant response rating, Foxtail, Giant [2, 13]: 60
Plant response rating, Crabgrass, Large [3, 11]: 60
Crabgrass, Large plant response rating ([3]; Postemergence, 500 g ai/ha): 80
Plant response rating, Crabgrass, Large [3, 12]: 10
Plant response rating, Crabgrass, Large [3, 13]: 90
Plant response rating, Morningglory [4, 11]: 90
Morningglory plant response rating ([4]; Postemergence, 500 g ai/ha): 100
Plant response rating, Morningglory [4, 12]: 0
Plant response rating, Morningglory [4, 13]: 50
Plant response rating, Pigweed [5, 11]: 100
Pigweed plant response rating ([5]; Postemergence, 500 g ai/ha): 100
Plant response rating, Pigweed [5, 12]: 10
Plant response rating, Pigweed [5, 13]: 100
Plant response rating, Velvetleaf [6, 11]: 100
Velvetleaf plant response rating ([6]; Postemergence, 500 g ai/ha): 100
Plant response rating, Velvetleaf [6, 12]: 50
Plant response rating, Velvetleaf [6, 13]: 80
Plant response rating, Wheat [7, 11]: 0
Wheat plant response rating ([7]; Postemergence, 500 g ai/ha): 20
Plant response rating, Wheat [7, 12]: 0
Plant response rating, Wheat [7, 13]: 0
Plant response rating, Barnyardgrass [8, 16]: 20
Barnyardgrass plant response rating [8]: 0
Plant response rating, Ducksalad [9, 16]: 60
Ducksalad plant response rating [9]: 20
Plant response rating, Rice (rice (Oryza sativa); [16]): 0
Rice plant response rating (rice (Oryza sativa)): 0
Plant response rating, Sedge, Umbrella [10, 16]: 75
Sedge, Umbrella plant response rating [10]: 0

O=C1CCCC(O)=C1C(=O)c1cnc(-c2cc(F)cc(F)c2)n(CC2CCCCC2)c1=O [Compound 163]
Plant response rating, Barnyardgrass [1, 11]: 50
Barnyardgrass plant response rating ([1]; Postemergence, 500 g ai/ha): 100
Plant response rating, Barnyardgrass [1, 12]: 0
Plant response rating, Barnyardgrass [1, 13]: 20
Plant response rating, Corn (corn (Zea mays); [11]): 0
Corn plant response rating (corn (Zea mays); Postemergence, 500 g ai/ha): 20
Plant response rating, Corn (corn (Zea mays); [12]): 0
Plant response rating, Corn (corn (Zea mays); [13]): 0
Plant response rating, Foxtail, Giant [2, 11]: 20
Foxtail, Giant plant response rating ([2]; Postemergence, 500 g ai/ha): 50
Plant response rating, Foxtail, Giant [2, 12]: 0
Plant response rating, Foxtail, Giant [2, 13]: 10
Plant response rating, Crabgrass, Large [3, 11]: 60
Crabgrass, Large plant response rating ([3]; Postemergence, 500 g ai/ha): 90
Plant response rating, Crabgrass, Large [3, 12]: 0
Plant response rating, Crabgrass, Large [3, 13]: 10
Plant response rating, Morningglory [4, 11]: 10
Morningglory plant response rating ([4]; Postemergence, 500 g ai/ha): 100
Plant response rating, Morningglory [4, 12]: 0
Plant response rating, Morningglory [4, 13]: 0
Plant response rating, Pigweed [5, 11]: 80
Pigweed plant response rating ([5]; Postemergence, 500 g ai/ha): 100
Plant response rating, Pigweed [5, 12]: 0
Plant response rating, Pigweed [5, 13]: 60
Plant response rating, Velvetleaf [6, 11]: 100
Velvetleaf plant response rating ([6]; Postemergence, 500 g ai/ha): 100
Plant response rating, Velvetleaf [6, 12]: 10
Plant response rating, Velvetleaf [6, 13]: 50
Plant response rating, Wheat [7, 11]: 0
Wheat plant response rating ([7]; Postemergence, 500 g ai/ha): 0
Plant response rating, Wheat [7, 12]: 0
Plant response rating, Wheat [7, 13]: 0
Plant response rating, Barnyardgrass [8, 16]: 0
Barnyardgrass plant response rating [8]: 0
Plant response rating, Ducksalad [9, 16]: 60
Ducksalad plant response rating [9]: 30
Plant response rating, Rice (rice (Oryza sativa); [16]): 20
Rice plant response rating (rice (Oryza sativa)): 10
Plant response rating, Sedge, Umbrella [10, 16]: 70
Sedge, Umbrella plant response rating [10]: 70
